Entries after “also recorded” stand apart in the source; their conditions may differ.
Key:
Assay type in all cases: physicochemical
[1] = Glossiness (refractive index), Abbe refractometer NTR-2T; details: 20° C.
Protocol: Measurement is carried out using Abbe refractometer NTR-2T (Atago Co., Ltd.) at 20° C., and resulting values represent refractive index.

[2] = Ultraviolet absorber solubility in oily bases; details: Tinosorb S 7%; 25° C., visual after 1 week; further: key: C: Soluble; N: Insoluble; (N): Since it is insoluble when ultraviolet absorber is 3%, it is judged to be probably insoluble at 5% as well
Protocol: Their state after 1 week was evaluated visually.

[3] = Smoothness (MIU, MMD), KES-SE Friction Tester on artificial leather
Protocol: Smoothness of ester compounds was measured using KES-SE Friction Tester (Kato Tech Co., Ltd.) with a detection-unit jig (an accessory of the tester, made of silicone rubber with irregularities resembling a human finger) and artificial leather (artificial leather Supplare produced by Idemitsu Technofine Co., Ltd.). On the artificial leather, 0.1 ml of an ester compound was droped. The jig was contacted to the site on the surface of the artificial leather where the oil agent was dropped. Temperature of the leather, oil agent and jig was adjusted to 25° C. in a constant temperature bath. Then, the jig was moved back and forth once at the same site with a speed of 1 mm/s (the moving distance of the jig was approximately 80 mm in one back-and-forth movement), and a mean frictional coefficient (MIU) and a fluctuation of mean frictional coefficient (MMD) for one back-and-forth movement were measured. The measurement was performed three times and the average values of MIU and MMD were calculated, which were used as indices of smoothness. For comparison, MIU and MMD of the various ester compounds used in the viscosity measurement were also measured.

[4] = Viscosity, Brookfield viscometer DV-II+; details: 25° C., spindle No. 2, 12 rpm
Protocol: Viscosity of ester compounds was measured using Brookfield viscometer DV-II+ (spindle No. 2, 12 rpm, 25° C.). As a comparison, viscosity of oil agents commonly used in cosmetic products was also measured.

[5] = Compatibility with various types of oil agent; parameters: key to Compatibility with Hydrogenated polyisobutene / Compatibility with Isononyl isononanoate / Compatibility with Neopentyl glycol diethylhexanoate / Compatibility with Triethylhexanoin / Compatibility with Octyldodecanol / Compatibility with Polyglyceryl-2 triisostearate / Compatibility with Diisostearyl malate / Compatibility with Olive oil / Compatibility with Isostearic acid / Compatibility with Cyclomethicone / Compatibility with Dimethicone (10 mm^2/s) / Compatibility with Ethanol / Compatibility with Glycerin / Compatibility with Squalane / Compatibility with Mineral oil: C: Compatible; N: Not compatible; details: for Compatibility with Cyclomethicone / Compatibility with Diisostearyl malate / Compatibility with Dimethicone (10 mm^2/s) / Compatibility with Ethanol / Compatibility with Glycerin / Compatibility with Hydrogenated polyisobutene / Compatibility with Isononyl isononanoate / Compatibility with Mineral oil / Compatibility with Neopentyl glycol diethylhexanoate / Compatibility with Octyldodecanol / Compatibility with Polyglyceryl-2 triisostearate / Compatibility with Squalane: 25° C., visual after 1 week
Protocol: Each of TCDNP and TCDDNP obtained in Synthesis Examples 1 and 8 and each of oily bases are combined with a weight ratio of 9:1 or 1:1, and dissolved in a water bath at 80-90° C. for approximately 30 min with stirring, then cooled to 50° C. with stirring, and stored in a thermostatic chamber at 25° C. Their compatibility was evaluated by visually checking the state after 1 week.

[6] = 25° C., 0.1 ml on artificial leather, average of three

SMILES: CC(C)(C)C(=O)OCC1CC2CC1C1CCCC21 (stereo not shown) [TCDNP, tricyclo[5.2.1.0^2,6]deca-8-yl-methyl neopentanoate]
- Refractive index [1]: 1.479
- Solubility of ultraviolet absorber Tinosorb S in the component [2]: N
- MIU (mean frictional coefficient) [3, 6]: 0.25
- MMD (fluctuation of mean frictional coefficient) [3, 6]: 0.006
- Smoothness in comparison with other oil agents ([3]; comparison of MIU at similar viscosity): superior smoothness than squalane; also recorded: comparable to dimethicone
- Viscosity [4]: 32 mPa · s
- Compatibility with the oil agents (overall) [5]: excellent compatibility with the oil agents other than glycerin
- Compatibility with Cyclomethicone ([5]; 10%): C
- Compatibility with Diisostearyl malate ([5]; 10%): C
- Compatibility with Dimethicone (10 mm^2/s) ([5]; 10%): C
- Compatibility with Ethanol ([5]; 10%): C
- Compatibility with Glycerin ([5]; 10%): N
- Compatibility with Hydrogenated polyisobutene ([5]; 10%): C
- Compatibility with Isononyl isononanoate ([5]; 10%): C
- Compatibility with Mineral oil ([5]; 10%): C
- Compatibility with Neopentyl glycol diethylhexanoate ([5]; 10%): C
- Compatibility with Octyldodecanol ([5]; 10%): C
- Compatibility with Polyglyceryl-2 triisostearate ([5]; 10%): C
- Compatibility with Squalane ([5]; 10%): C
- Compatibility with Cyclomethicone ([5]; 50%): C
- Compatibility with Diisostearyl malate ([5]; 50%): C
- Compatibility with Dimethicone (10 mm^2/s) ([5]; 50%): C
- Compatibility with Ethanol ([5]; 50%): C
- Compatibility with Glycerin ([5]; 50%): N
- Compatibility with Hydrogenated polyisobutene ([5]; 50%): C
- Compatibility with Isononyl isononanoate ([5]; 50%): C
- Compatibility with Mineral oil ([5]; 50%): C
- Compatibility with Neopentyl glycol diethylhexanoate ([5]; 50%): C
- Compatibility with Octyldodecanol ([5]; 50%): C
- Compatibility with Polyglyceryl-2 triisostearate ([5]; 50%): C
- Compatibility with Squalane ([5]; 50%): C

— US10010493B2, “Ester compound, and cosmetic component and cosmetic product each containing same” (Kokyu Alcohol Kogyo Co., Ltd., priority 2014, dated 2018)
